# Active and inactive are the calls of the source. No cut-off for these calls is given here.
# Legend:
# [1] = molecular target: T1, Sodium-dependent serotonin transporter (Homo sapiens, UniProt P31645); assay: biochemical; type: cell-based, HEK293
# Target sequence in this assay (P31645 whole entry): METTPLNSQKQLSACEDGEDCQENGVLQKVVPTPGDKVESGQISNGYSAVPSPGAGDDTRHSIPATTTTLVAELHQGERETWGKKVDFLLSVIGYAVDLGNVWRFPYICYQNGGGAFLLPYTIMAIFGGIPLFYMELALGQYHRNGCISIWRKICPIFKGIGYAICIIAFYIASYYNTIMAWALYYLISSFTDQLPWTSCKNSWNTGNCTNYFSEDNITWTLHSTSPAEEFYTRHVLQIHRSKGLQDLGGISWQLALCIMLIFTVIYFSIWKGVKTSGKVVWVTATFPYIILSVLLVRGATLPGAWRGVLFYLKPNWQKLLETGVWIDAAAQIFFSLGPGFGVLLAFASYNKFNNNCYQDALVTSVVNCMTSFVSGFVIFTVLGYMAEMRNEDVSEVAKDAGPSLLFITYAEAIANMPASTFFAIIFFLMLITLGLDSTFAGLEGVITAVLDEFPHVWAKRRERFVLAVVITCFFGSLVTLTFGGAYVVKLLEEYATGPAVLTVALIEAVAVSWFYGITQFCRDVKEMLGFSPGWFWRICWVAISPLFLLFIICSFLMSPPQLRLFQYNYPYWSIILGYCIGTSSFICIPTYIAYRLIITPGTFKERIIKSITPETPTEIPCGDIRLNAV
# Description: Displacement of [3H]citalopram from human SERT transfected in HEK293 cells after 3 hrs by Wallac counting analysis
# [2] = molecular target: Sodium-dependent dopamine transporter (Homo sapiens, UniProt Q01959); assay: biochemical
# Description: Displacement of [3H]WIN35428 from human DAT transfected in HEK293 cells after 3 hrs by Wallac counting analysis
# [3] = molecular target: Sodium-dependent serotonin transporter (Rattus norvegicus, UniProt P31652)
# Description: Displacement of [3H]-citalopram from Sprague-Dawley rat brain SERT after 1 hr
# [4] = system: Rattus norvegicus; conditions: Sprague-Dawley
# Description: (§1) In vivo SERT receptor occupancy in po dosed Sprague-Dawley rat brain cortex after 2 hrs in presence of DASB
# [5] = system: Rattus norvegicus
# [6] = molecular target: T1, Sodium-dependent serotonin transporter; assay: Inhibition of human SERT transfected in HEK293 cells assessed as inhibition of [3H]serotonin uptake incubated 30 mins prior to substrate addition measured after 1 minute 50 secs; type: cell-based
# Target sequence in this assay (P31645 whole entry, looked up): as the sequence (P31645 whole entry) above
# [7] = Clearance in rat at 1 mg/kg, iv; type: ADME, organism-based; parameters: dose 1 mg/kg, route intravenous; conditions: in vivo
# [8] = Clearance in dog at 1 mg/kg, iv; type: ADME, organism-based, Canis lupus familiaris; parameters: dose 1 mg/kg, route intravenous; conditions: in vivo
# [9] = AUC (0 to infinity) in rat at 1 mg/kg, iv; type: ADME, organism-based; parameters: time infinity, dose 1 mg/kg, route intravenous; conditions: plasma
# [10] = Metabolic stability in rat liver microsomes after 30 mins by LC-ESI/MS analysis; type: ADME, Microsome; conditions: read-out: Stability
# [11] = molecular target: CYP2C9 (Homo sapiens, UniProt P11712); assay: Inhibition of CYP2C9 (unknown origin) at 10 uM; type: ADME
# Sequence of CYP2C9 (P11712 whole entry): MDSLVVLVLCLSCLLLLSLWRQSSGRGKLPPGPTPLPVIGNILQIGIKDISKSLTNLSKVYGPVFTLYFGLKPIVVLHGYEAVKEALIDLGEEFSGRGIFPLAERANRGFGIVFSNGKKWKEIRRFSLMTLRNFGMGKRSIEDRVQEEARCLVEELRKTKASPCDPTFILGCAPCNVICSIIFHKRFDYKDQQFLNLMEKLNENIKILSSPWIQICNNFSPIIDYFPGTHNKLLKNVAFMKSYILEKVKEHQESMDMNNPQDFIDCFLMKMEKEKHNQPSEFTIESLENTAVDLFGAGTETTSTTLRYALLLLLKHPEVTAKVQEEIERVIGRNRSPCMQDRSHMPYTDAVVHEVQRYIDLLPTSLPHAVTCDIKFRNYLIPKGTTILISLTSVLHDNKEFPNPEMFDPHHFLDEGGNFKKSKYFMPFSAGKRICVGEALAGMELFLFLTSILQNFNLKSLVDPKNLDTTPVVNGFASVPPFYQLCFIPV
# [12] = Metabolic stability in dog liver microsomes after 30 mins by LC-ESI/MS analysis; type: ADME, Canis lupus familiaris, Microsome; conditions: read-out: Stability
# [13] = species: Rattus norvegicus; assay: animal or person; conditions: Sprague-Dawley, po, 2 h
# Description: as §1
# [14] = Tmax in dog at 1 mg/kg, po; type: ADME, organism-based, Canis lupus familiaris; parameters: dose 1 mg/kg, route oral; conditions: in vivo
# [15] = molecular target: CYP3A4 (Homo sapiens, UniProt P08684); assay: Inhibition of CYP3A4 (unknown origin) at 10 uM; type: ADME
# Sequence of CYP3A4 (P08684 whole entry): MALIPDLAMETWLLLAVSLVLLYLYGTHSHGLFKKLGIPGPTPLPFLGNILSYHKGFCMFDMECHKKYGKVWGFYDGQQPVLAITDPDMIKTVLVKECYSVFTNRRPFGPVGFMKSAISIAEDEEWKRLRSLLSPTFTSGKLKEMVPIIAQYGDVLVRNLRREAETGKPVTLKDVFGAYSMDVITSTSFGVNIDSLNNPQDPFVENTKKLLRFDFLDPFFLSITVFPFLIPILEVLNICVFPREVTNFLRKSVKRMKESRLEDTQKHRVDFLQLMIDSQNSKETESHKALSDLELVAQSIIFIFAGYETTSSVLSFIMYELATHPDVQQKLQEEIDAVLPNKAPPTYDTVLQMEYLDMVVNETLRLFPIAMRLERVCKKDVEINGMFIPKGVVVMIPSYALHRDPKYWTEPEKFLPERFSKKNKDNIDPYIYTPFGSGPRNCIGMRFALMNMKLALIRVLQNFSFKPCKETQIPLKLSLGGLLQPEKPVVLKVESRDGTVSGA
# [16] = Tmax in rat at 1 mg/kg, po; type: ADME, organism-based; parameters: dose 1 mg/kg, route oral; conditions: in vivo
# [17] = system: Plasma; assay: Drug uptake in Sprague-Dawley rat plasma at 10 mg/kg, po; type: ADME, organism-based; parameters: dose 10 mg/kg, route oral; conditions: in vivo
# [18] = Metabolic stability in human liver microsomes after 30 mins by LC-ESI/MS analysis; type: ADME, Microsome; conditions: read-out: Stability
# [19] = Half life in dog at 1 mg/kg, iv; type: ADME, organism-based, Canis lupus familiaris; parameters: dose 1 mg/kg, route intravenous; conditions: in vivo
# [20] = molecular target: CYP2D6 (Homo sapiens, UniProt P10635); assay: Inhibition of CYP2D6 (unknown origin) at 10 uM; type: ADME
# Sequence of CYP2D6 (P10635 whole entry): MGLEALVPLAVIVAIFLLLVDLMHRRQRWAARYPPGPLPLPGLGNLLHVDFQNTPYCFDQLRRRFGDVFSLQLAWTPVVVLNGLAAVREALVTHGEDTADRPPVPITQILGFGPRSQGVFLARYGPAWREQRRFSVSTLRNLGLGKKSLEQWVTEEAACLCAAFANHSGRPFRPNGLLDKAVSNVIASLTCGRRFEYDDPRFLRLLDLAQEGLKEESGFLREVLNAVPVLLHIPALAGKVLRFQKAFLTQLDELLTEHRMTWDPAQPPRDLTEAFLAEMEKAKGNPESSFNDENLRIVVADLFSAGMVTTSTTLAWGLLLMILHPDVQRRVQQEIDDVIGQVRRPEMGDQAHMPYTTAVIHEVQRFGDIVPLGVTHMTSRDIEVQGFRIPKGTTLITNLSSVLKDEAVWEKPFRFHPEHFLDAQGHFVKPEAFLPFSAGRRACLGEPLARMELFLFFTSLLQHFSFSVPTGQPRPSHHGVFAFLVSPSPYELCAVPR
# [21] = system: Rattus norvegicus; assay: Neurotoxicity in Sprague-Dawley rat at 100 mg/kg, po by rotorod test; type: toxicity, organism-based; parameters: dose 100 mg/kg, route oral; conditions: in vivo
# [22] = AUC (0 to infinity) in rat at 1 mg/kg, po; type: ADME, organism-based; parameters: time infinity, dose 1 mg/kg, route oral; conditions: plasma
# [23] = system: Brain; assay: Drug uptake in Sprague-Dawley rat brain at 10 mg/kg, po; type: ADME, organism-based; parameters: dose 10 mg/kg, route oral; conditions: in vivo, read-out: Drug uptake
# [24] = AUC (0 to infinity) in dog at 1 mg/kg, iv; type: ADME, organism-based, Canis lupus familiaris; parameters: dose 1 mg/kg, route intravenous, time infinity; conditions: plasma
# [25] = Oral bioavailability in dog at 1 mg/kg; type: ADME, organism-based, Canis lupus familiaris; conditions: in vivo
# [26] = Half life in rat at 1 mg/kg, iv; type: ADME, organism-based; parameters: dose 1 mg/kg, route intravenous; conditions: in vivo
# [27] = molecular target: Cytochrome P450 2D6 (Homo sapiens, UniProt P10635); assay: Inhibition of CYP2D6 (unknown origin); type: ADME
# Sequence of Cytochrome P450 2D6 (P10635 whole entry): as above
# [28] = Oral bioavailability in rat at 1 mg/kg; type: ADME, organism-based; conditions: in vivo
# [29] = Volume of distribution at steady state in rat at 1 mg/kg, iv; type: ADME, organism-based; parameters: dose 1 mg/kg, route intravenous; conditions: in vivo, read-out: Vdss
# [30] = species: Rattus norvegicus; assay: animal or person; conditions: po
# [31] = molecular target: T2, Cytochrome P450 1A2 (Homo sapiens, UniProt P05177); assay: Inhibition of CYP1A2 (unknown origin); type: ADME
# T2 sequence (P05177 whole entry): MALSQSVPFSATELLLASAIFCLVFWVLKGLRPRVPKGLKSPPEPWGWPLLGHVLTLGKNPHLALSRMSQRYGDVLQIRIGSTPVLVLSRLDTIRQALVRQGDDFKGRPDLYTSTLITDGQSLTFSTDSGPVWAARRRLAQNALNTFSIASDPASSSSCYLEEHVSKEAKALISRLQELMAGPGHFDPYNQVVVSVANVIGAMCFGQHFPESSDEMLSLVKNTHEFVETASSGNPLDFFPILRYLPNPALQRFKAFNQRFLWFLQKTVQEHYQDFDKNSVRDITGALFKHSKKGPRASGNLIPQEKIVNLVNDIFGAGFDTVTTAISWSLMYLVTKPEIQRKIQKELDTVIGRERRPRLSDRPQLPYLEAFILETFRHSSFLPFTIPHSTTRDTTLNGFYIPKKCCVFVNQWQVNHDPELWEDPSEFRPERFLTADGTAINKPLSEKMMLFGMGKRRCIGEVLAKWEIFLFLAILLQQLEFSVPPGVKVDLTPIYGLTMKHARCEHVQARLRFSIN
# [32] = Ratio of drug uptake in brain to plasma in Sprague-Dawley rat at 10 mg/kg, po; type: ADME, organism-based; parameters: dose 10 mg/kg, route oral; conditions: read-out: BPR
# [33] = Cmax in dog at 1 mg/kg, po; type: ADME, organism-based, Canis lupus familiaris; parameters: dose 1 mg/kg, route oral; conditions: in vivo
# [34] = Serum protein binding in human; type: ADME, cell-free; conditions: read-out: PB (converted)
# [35] = molecular target: Cytochrome P450 2C9 (Homo sapiens, UniProt P11712); assay: Inhibition of CYP2C9 (unknown origin); type: ADME
# Sequence of Cytochrome P450 2C9 (P11712 whole entry): as the sequence (P11712 whole entry) above
# [36] = AUC (0 to infinity) in dog at 1 mg/kg, po; type: ADME, organism-based, Canis lupus familiaris; parameters: time infinity, dose 1 mg/kg, route oral; conditions: plasma
# [37] = Volume of distribution at steady state in dog at 1 mg/kg, iv; type: ADME, organism-based, Canis lupus familiaris; parameters: dose 1 mg/kg, route intravenous; conditions: in vivo, read-out: Vdss
# [38] = molecular target: Cytochrome P450 3A4 (Homo sapiens, UniProt P08684); assay: Inhibition of CYP3A4 (unknown origin); type: ADME
# Sequence of Cytochrome P450 3A4 (P08684 whole entry): as the sequence (P08684 whole entry) above
# [39] = Cmax in rat at 1 mg/kg, po; type: ADME, organism-based; parameters: dose 1 mg/kg, route oral; conditions: in vivo
# Sequence of Sodium-dependent dopamine transporter (Q01959 whole entry): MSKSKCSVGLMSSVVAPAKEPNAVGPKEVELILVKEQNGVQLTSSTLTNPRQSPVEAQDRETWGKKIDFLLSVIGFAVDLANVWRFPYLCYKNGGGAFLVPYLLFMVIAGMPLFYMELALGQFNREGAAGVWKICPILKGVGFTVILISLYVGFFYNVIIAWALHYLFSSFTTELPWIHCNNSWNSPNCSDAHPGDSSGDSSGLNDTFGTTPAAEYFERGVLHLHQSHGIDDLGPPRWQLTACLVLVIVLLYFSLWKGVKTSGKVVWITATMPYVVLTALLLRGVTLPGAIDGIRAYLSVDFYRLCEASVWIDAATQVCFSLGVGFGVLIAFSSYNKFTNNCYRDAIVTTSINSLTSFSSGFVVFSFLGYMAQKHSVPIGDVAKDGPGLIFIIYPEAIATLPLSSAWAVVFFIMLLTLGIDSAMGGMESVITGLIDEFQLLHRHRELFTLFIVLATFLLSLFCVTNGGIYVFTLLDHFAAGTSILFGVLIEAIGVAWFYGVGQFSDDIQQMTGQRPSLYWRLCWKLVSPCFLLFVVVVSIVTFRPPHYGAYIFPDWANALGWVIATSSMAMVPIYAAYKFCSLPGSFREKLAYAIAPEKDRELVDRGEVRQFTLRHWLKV
# Sequence of Sodium-dependent serotonin transporter (Rattus norvegicus, UniProt P31652) (P31652 whole entry): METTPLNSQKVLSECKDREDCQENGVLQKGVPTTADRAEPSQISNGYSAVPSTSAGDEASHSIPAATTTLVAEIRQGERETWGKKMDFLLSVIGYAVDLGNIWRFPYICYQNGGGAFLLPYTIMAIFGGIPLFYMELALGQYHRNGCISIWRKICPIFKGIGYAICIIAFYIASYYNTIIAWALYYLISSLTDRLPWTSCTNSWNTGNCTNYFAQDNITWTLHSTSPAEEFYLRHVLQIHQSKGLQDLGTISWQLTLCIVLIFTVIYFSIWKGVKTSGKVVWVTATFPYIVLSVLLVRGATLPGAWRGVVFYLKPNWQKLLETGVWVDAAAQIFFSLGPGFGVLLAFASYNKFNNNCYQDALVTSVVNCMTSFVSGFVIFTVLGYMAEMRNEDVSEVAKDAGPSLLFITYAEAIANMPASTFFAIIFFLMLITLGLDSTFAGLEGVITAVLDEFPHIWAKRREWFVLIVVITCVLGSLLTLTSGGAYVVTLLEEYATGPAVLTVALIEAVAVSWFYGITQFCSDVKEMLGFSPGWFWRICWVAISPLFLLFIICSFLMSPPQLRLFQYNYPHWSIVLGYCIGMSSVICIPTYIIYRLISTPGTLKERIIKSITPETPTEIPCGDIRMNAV
compound,measurement,setting,value
COc1ccc(O[C@@H](CC(C)C)[C@H]2CCNC2)c(C)n1 (stereo in doubt; form 2),Ki,[1],0.21 nM
same,Ki,[2],354 nM
CCN(CC)C(=O)C1(c2ccccc2)CC1CN (stereo not drawn),Ki,[3],27 nM
COc1ccc(O[C@H](CC(C)C)[C@@H]2CCNC2)c(C)n1,Ki,[1],0.75 nM
same,Ki,[2],> 890 nM
COc1ccc(O[C@@H](CC(C)C)[C@H]2CCNC2)c(C)n1 [listing 1 of 2 here],Activity,[4],Dose-dependent effect
same,inhibition,[5],Dose-dependent effect
same,inhibition,[6],Active
COc1ccc(O[C@@H](CC(C)C)[C@H]2CCNC2)c(C)n1 (stereo in doubt; form 1),Ki,[1],0.22 nM
same,Ki,[2],475 nM
COc1ccc(O[C@@H](CC(C)C)[C@@H]2CCNC2)c(C)n1,Ki,[1],0.84 nM
same,Ki,[2],> 890 nM
COc1ccc(O[C@H](CC(C)C)[C@H]2CCNC2)c(C)n1,Ki,[2],> 890 nM
COc1ccc(O[C@@H](CC(C)C)[C@H]2CCNC2)c(C)n1 [listing 2 of 2 here],clearance,[7],120 mL/min/kg
same,clearance,[8],8.2 mL/min/kg
same,AUC(0-inf),[9],0.6 µM·h
same,remaining at 0.5 h,[10],92%
same,inhibition at 10 µM,[11],< 30%
same,remaining at 0.5 h,[12],57%
same,ED80,[13],10.6 mg/kg
same,Tmax,[14],1.3 h
same,inhibition at 10 µM,[15],< 30%
same,Tmax,[16],1.3 h
same,concentration,[17],146 nM
same,remaining at 0.5 h,[18],28%
same,half-life,[19],4.6 h
same,inhibition at 10 µM,[20],< 30%
same,Activity,[21],Non-toxic
same,AUC(0-inf),[22],0.251 µM·h
same,concentration,[23],450 nM
same,AUC(0-inf),[24],8.09 µM·h
same,bioavailability,[25],47%
same,IC50,[1],1.9 nM
same,half-life,[26],0.84 h
same,IC50,[27],> 10000 nM
same,bioavailability,[28],31%
same,Vd,[29],7.6 L/kg
same,ED80,[30],6.8 mg/kg
same,IC50,[31],> 10000 nM
same,Kp,[32],3
same,Cmax,[33],503 nM
same,fraction unbound,[34],0.43
same,IC50,[35],> 10000 nM
same,AUC(0-inf),[36],4.13 µM·h
same,Vd,[37],1.8 L/kg
same,IC50,[38],> 10000 nM
same,Cmax,[39],65 nM
same,Ki,[3],0.16 nM

# Source: ChEMBL document CHEMBL2384999, “Discovery of a potent, dual serotonin and norepinephrine reuptake inhibitor” (ACS Med Chem Lett, 2013)
